In assay [1] the test system is Radical scavenging activity. Put plainly: DPPH radical scavenging activity in ethanol solution. Type of assay: functional.
Assay [2] concerns Radical scavenging activity. In words: DPPH radical scavenging activity in liposome. The class given is functional.

We go through 5 compounds from ChEMBL document CHEMBL1146853, “Proton dissociation is important to understanding structure-activity relationships of gallic acid antioxidants” (Bioorg Med Chem Lett, 2006).

For orientation: IC50 means the concentration needed to halve the response being measured.

Each structure is given as a SMILES string.

Consider `COc1cc(C(=O)O)cc(O)c1OC`, for which the IC50 entry in assay [1] and in assay [2] was “Not Active” each time.
As to `COc1cc(C(=O)O)cc(OC)c1OC` [3,4,5-TRIMETHOXYBENZOIC ACID], the half-maximal inhibitory concentration (IC50) result in assay [1] and in assay [2] was “Not Active” in each case.
For `COC(=O)c1cc(O)c(O)c(O)c1` [GALLIC ACID METHYL ESTER], the 50% inhibitory concentration (IC50) in assay [1] (read-out: IC50) worked out at 7.2 µM; in assay [2] (read-out: IC50) it was 8.4 µM.
The like results for `O=C(O)c1cc(O)c(O)c(O)c1` [GALLIC ACID] were, in that order, 6 µM and 7.3 µM.
Turning to `COc1cc(C(=O)O)cc(OC)c1O` [SYRINGIC ACID], the IC50 in assay [1] (read-out: IC50) was found to be 7.3 µM; in assay [2] (read-out: IC50), 7.4 µM.
